According to PubChem BioAssay (NCI):
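Protocol summary: plate cells (96-well), add compound at 5 concentrations, incubate 48 h, interpolate endpoints linearly. GI50 marks 50% less growth. TGI marks complete inhibition of growth.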

What follows are compounds tested on CAKI-1 renal (assay: growth of human tumour cells (NCI), 48 h).

| SMILES | GI50 [µM] | TGI [µM] |
| --- | --- | --- |
| O=C(c1cccc(O)c1O)c1cn(Cc2ccc(F)cc2)c2cccc(O)c12 | 4.13 | 18.5 |
| Nc1ncc(-c2cnn(CCO)c2)c2scc(-c3ccc(NC(=O)Nc4cccc(F)c4)cc3)c12 | 0.32 | 2.2 |
| COc1cc(C2=NN(C(C)=O)C(c3ccc(OC(C)=O)cc3OC(C)=O)O2)c(OC(C)=O)c2ccccc12 (centres undefined) | 0.465 | > 21.1 |
| COC(=O)Nc1nc2ccc(Oc3ccc(NC(=O)Nc4ccccc4)cc3)cc2[nH]1 | 3.4 | > 21.7 |
| O=C1c2c(Br)sc(Br)c2C(NC(=O)C(F)(F)F)C1O (centres undefined) |  | 31.4 |
| CCN(CC)CCCC(C)Nc1c(C)cnc2cc(Cl)c(C)cc12 (centres undefined) | 10 | 26.6 |
| CC(=O)OC1CC(O)C23COC(O)C1(C)C2CC(O)C1(C)C3C(=O)C(O)C2(C)C(c3ccoc3)CC3OC321 (centres undefined) | 2.97 | > 100 |
| CCCCCCCC(CC(=O)NC(CO)C(=O)NC(CO)CC(C)C)OC(=O)CC(CCCCCCC)OC(=O)CC(CCCCCCC)OC1OC(C)C(O)C(OC2OC(C)C(O)C(OC(C)=O)C2O)C1O (centres undefined) |  | 30.2 |
| COc1ccc(C(C)c2cc3c(cc2OC)OCO3)cc1 (centres undefined) |  | > 100 |
| CCc1[nH]c(=O)nc(N)c1-c1ccc(N2CCCCC2)c([N+](=O)[O-])c1 |  | > 100 |
| CCC#CC[C@H]1C/C=C2/C(=O)C=C[C@@H]2C/C=C\CCCC(=O)O1 | 0.935 | 2.1 |
| COc1cc[nH]c1/C=C1\C(=O)Nc2ccccc21 | 1.04 | > 11.5 |
| O=C(Nc1ccc(Cl)cc1)c1cc(-c2ccc(F)cc2)c2sc(=O)[nH]c2n1 | 2.15 | 4.99 |
| COc1cc(NC(=O)c2cc(O)c(CC=C(C)C)c(O)c2)cc2c1O[C@]1(C)CC[C@@H](O)C(C)(C)[C@H]1C2 | 3.17 | > 100 |
| Cc1ccc(C(=NN=C(N)N)c2ccc(C)cc2)cc1 | 0.608 | 5.93 |
| Clc1nc(Cl)c2ncn(Cc3cccc(COc4cccc(OCc5cccc(Cn6cnc7c(Cl)nc(Cl)nc76)c5)c4)c3)c2n1 | > 100 | > 100 |
| CN(C)c1ccc(N)cc1 | 5.6 | 30.9 |
| CCS(=O)(=O)c1ccc(OC)c(Nc2ncc(-c3cccc(OC)c3)o2)c1 | 8.58 | > 25 |
| CC(C)c1ccc(C(=O)Nc2sc3c(c2C(N)=O)CCC(=O)C3)cc1 | 0.334 | 1.55 |

These compounds were tested on DU-145 prostate (assay: growth of human tumour cells (NCI), 48 h).

| SMILES | GI50 [µM] | TGI [µM] |
| --- | --- | --- |
| O=C(c1cccc(O)c1O)c1cn(Cc2ccc(F)cc2)c2cccc(O)c12 | 5.1 | 17.3 |
| Nc1ncc(-c2cnn(CCO)c2)c2scc(-c3ccc(NC(=O)Nc4cccc(F)c4)cc3)c12 | 0.52 | 11.6 |
| COc1cc(C2=NN(C(C)=O)C(c3ccc(OC(C)=O)cc3OC(C)=O)O2)c(OC(C)=O)c2ccccc12 (centres undefined) | 0.683 | > 100 |
| COC(=O)Nc1nc2ccc(Oc3ccc(NC(=O)Nc4ccccc4)cc3)cc2[nH]1 | 0.254 | 3.1 |
| O=C1c2c(Br)sc(Br)c2C(NC(=O)C(F)(F)F)C1O (centres undefined) |  | 39.4 |
| CCN(CC)CCCC(C)Nc1c(C)cnc2cc(Cl)c(C)cc12 (centres undefined) | 12.8 | 27.8 |
| CC(=O)OC1CC(O)C23COC(O)C1(C)C2CC(O)C1(C)C3C(=O)C(O)C2(C)C(c3ccoc3)CC3OC321 (centres undefined) | 0.9 | > 100 |
| CCCCCCCC(CC(=O)NC(CO)C(=O)NC(CO)CC(C)C)OC(=O)CC(CCCCCCC)OC(=O)CC(CCCCCCC)OC1OC(C)C(O)C(OC2OC(C)C(O)C(OC(C)=O)C2O)C1O (centres undefined) |  | 23.4 |
| COc1ccc(C(C)c2cc3c(cc2OC)OCO3)cc1 (centres undefined) |  | > 21.9 |
| CCc1[nH]c(=O)nc(N)c1-c1ccc(N2CCCCC2)c([N+](=O)[O-])c1 |  | > 100 |
| CCC#CC[C@H]1C/C=C2/C(=O)C=C[C@@H]2C/C=C\CCCC(=O)O1 | 1.37 | 6.24 |
| COc1cc[nH]c1/C=C1\C(=O)Nc2ccccc21 | 9.37 | > 25 |
| O=C(Nc1ccc(Cl)cc1)c1cc(-c2ccc(F)cc2)c2sc(=O)[nH]c2n1 | 3.7 | 28.9 |
| COc1cc(NC(=O)c2cc(O)c(CC=C(C)C)c(O)c2)cc2c1O[C@]1(C)CC[C@@H](O)C(C)(C)[C@H]1C2 | 7.49 | 20.5 |
| Cc1ccc(C(=NN=C(N)N)c2ccc(C)cc2)cc1 | 0.313 | 1.16 |
| Clc1nc(Cl)c2ncn(Cc3cccc(COc4cccc(OCc5cccc(Cn6cnc7c(Cl)nc(Cl)nc76)c5)c4)c3)c2n1 | 14.2 | 42.8 |
| CN(C)c1ccc(N)cc1 | 6.05 | 48.1 |
| CCS(=O)(=O)c1ccc(OC)c(Nc2ncc(-c3cccc(OC)c3)o2)c1 | 9.99 | > 25 |
| CC(C)c1ccc(C(=O)Nc2sc3c(c2C(N)=O)CCC(=O)C3)cc1 | 3.16 | 14.3 |

What follows are compounds tested on IGROV1 ovarian (assay: growth of human tumour cells (NCI), 48 h).

| SMILES | GI50 [µM] | TGI [µM] |
| --- | --- | --- |
| O=C(c1cccc(O)c1O)c1cn(Cc2ccc(F)cc2)c2cccc(O)c12 | 0.833 | 7.85 |
| Nc1ncc(-c2cnn(CCO)c2)c2scc(-c3ccc(NC(=O)Nc4cccc(F)c4)cc3)c12 | 0.285 | 2.61 |
| COc1cc(C2=NN(C(C)=O)C(c3ccc(OC(C)=O)cc3OC(C)=O)O2)c(OC(C)=O)c2ccccc12 (centres undefined) | 0.82 | 42.6 |
| COC(=O)Nc1nc2ccc(Oc3ccc(NC(=O)Nc4ccccc4)cc3)cc2[nH]1 | 0.665 | > 10.9 |
| O=C1c2c(Br)sc(Br)c2C(NC(=O)C(F)(F)F)C1O (centres undefined) |  | 42.3 |
| CCN(CC)CCCC(C)Nc1c(C)cnc2cc(Cl)c(C)cc12 (centres undefined) | 25.9 | 74.7 |
| CC(=O)OC1CC(O)C23COC(O)C1(C)C2CC(O)C1(C)C3C(=O)C(O)C2(C)C(c3ccoc3)CC3OC321 (centres undefined) | 0.377 | > 100 |
| CCCCCCCC(CC(=O)NC(CO)C(=O)NC(CO)CC(C)C)OC(=O)CC(CCCCCCC)OC(=O)CC(CCCCCCC)OC1OC(C)C(O)C(OC2OC(C)C(O)C(OC(C)=O)C2O)C1O (centres undefined) |  | 24.8 |
| COc1ccc(C(C)c2cc3c(cc2OC)OCO3)cc1 (centres undefined) |  | 7.47 |
| CCc1[nH]c(=O)nc(N)c1-c1ccc(N2CCCCC2)c([N+](=O)[O-])c1 |  | > 100 |
